Assay results as given in PubChem BioAssay AID330 (DTP/NCI, 2004).
Several values for one entry are separate records, joined by “and”; a condition that tells them apart may be missing. Equal entries are not always repeated. Toxic doses and inconclusive results are not listed. How the source made its calls: active means survival T/C of 150% or more; inactive means T/C below 125% in these data.

Test system: P388 leukemia ip, CD2F1 mice, survival T/C
Test: NCI In Vivo Anticancer Drug Screen. Data for tumor model P388 Leukemia (intraperitoneal) in CD2F1 (CDF1) mice
Conditions: endpoint: median survival time, higher = longer survival
Summary of the method: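 Mice carrying the transplanted tumor received test compound or vehicle. Survival was recorded in each group, and the value is the treated-group measurement divided by that of the vehicle-treated control group.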

[1] = dose: 12.5 mg/kg/injection, schedule: Q01DX009 (ip), vehicle: distilled water + Tween-80
[2] = dose: 30.0 mg/kg/injection, schedule: Q01DX005 (ip), vehicle: saline with Tween-80
[3] = dose: 60.0 mg/kg/injection, schedule: Q01DX005 (ip), vehicle: saline with Tween-80
[4] = dose: 120.0 mg/kg/injection, schedule: Q01DX005 (ip), vehicle: saline with Tween-80
[5] = dose: 240.0 mg/kg/injection, schedule: Q01DX005 (ip), vehicle: saline with Tween-80
[6] = dose: 12.5 mg/kg/injection, schedule: Q01DX009 (ip), vehicle: saline with Tween-80
[7] = dose: 25.0 mg/kg/injection, schedule: Q01DX009 (ip), vehicle: saline with Tween-80
[8] = dose: 50.0 mg/kg/injection, schedule: Q01DX009 (ip), vehicle: saline with Tween-80
[9] = dose: 100.0 mg/kg/injection, schedule: Q01DX009 (ip), vehicle: saline with Tween-80
[10] = dose: 60.0 mg/kg/injection, schedule: Q01DX005 (ip), vehicle: Klucel (hydroxypropylcellulose) (HPC)
[11] = dose: 120.0 mg/kg/injection, schedule: Q01DX005 (ip), vehicle: Klucel (hydroxypropylcellulose) (HPC)
[12] = dose: 240.0 mg/kg/injection, schedule: Q01DX005 (ip), vehicle: Klucel (hydroxypropylcellulose) (HPC)
[13] = dose: 50.0 mg/kg/injection, schedule: Q01DX005 (ip), vehicle: Klucel (hydroxypropylcellulose) (HPC)
[14] = dose: 100.0 mg/kg/injection, schedule: Q01DX005 (ip), vehicle: Klucel (hydroxypropylcellulose) (HPC)
[15] = dose: 200.0 mg/kg/injection, schedule: Q01DX005 (ip), vehicle: Klucel (hydroxypropylcellulose) (HPC)
[16] = dose: 200.0 mg/kg/injection, schedule: Q01DX009 (ip), vehicle: saline with Tween-80
[17] = dose: 50.0 mg/kg/injection, schedule: Q01DX005 (ip), vehicle: saline with Tween-80
[18] = dose: 100.0 mg/kg/injection, schedule: Q01DX005 (ip), vehicle: saline with Tween-80
[19] = dose: 200.0 mg/kg/injection, schedule: Q01DX005 (ip), vehicle: saline with Tween-80
[20] = dose: 50.0 mg/kg/injection, schedule: Q01DX005 (ip), vehicle: saline
[21] = dose: 100.0 mg/kg/injection, schedule: Q01DX005 (ip), vehicle: saline
[22] = dose: 50.0 mg/kg/injection, schedule: Q01DX009 (ip), vehicle: Klucel (hydroxypropylcellulose) (HPC)
[23] = dose: 100.0 mg/kg/injection, schedule: Q01DX009 (ip), vehicle: Klucel (hydroxypropylcellulose) (HPC)
[24] = dose: 200.0 mg/kg/injection, schedule: Q01DX009 (ip), vehicle: Klucel (hydroxypropylcellulose) (HPC)

Measured: T/C

Cc1cn(CC2C=CC(CS[As](C)C)O2)c(=O)[nH]c1=O (stereo unspecified)
inactive: [1] 99 % of control | dose: 25.0 mg/kg/injection, schedule: Q01DX009 (ip), vehicle: distilled water + Tween-80 108 % of control | dose: 50.0 mg/kg/injection, schedule: Q01DX009 (ip), vehicle: distilled water + Tween-80 101 % of control | dose: 100.0 mg/kg/injection, schedule: Q01DX009 (ip), vehicle: distilled water + Tween-80 119 % of control

CCOC(=O)/C(C#N)=C/c1ccc(C)o1
inactive: dose: 15.0 mg/kg/injection, schedule: Q01DX005 (ip), vehicle: saline with Tween-80 99 % of control | [2] 100 % of control | [3] 100 % of control and 101 % of control

COc1ccc(CSC(=S)Nc2cc(C)c(C)cc2Br)cc1
inactive: dose: 50.0 mg/kg/injection, schedule: Q01DX009 (ip), vehicle: suspension in saline 100 % of control | dose: 100.0 mg/kg/injection, schedule: Q01DX009 (ip), vehicle: suspension in saline 97 % of control | dose: 200.0 mg/kg/injection, schedule: Q01DX009 (ip), vehicle: suspension in saline 93 % of control

COC1(OC)C2(Cl)CC(C(=O)O)C1(Cl)C(Cl)=C2Cl (stereo unspecified)
inactive: [3] 102 % of control | [4] 99 % of control | [5] 104 % of control

CC1=Nc2cc(Cl)c(Cl)cc2N(C)/C1=C/C1=C(Cl)C(=O)c2ccccc2C1=O
inactive: dose: 6.25 mg/kg/injection, schedule: Q01DX009 (ip), vehicle: saline with Tween-80 114 % of control | [6] 95 % of control | [7] 107 % of control | [8] 105 % of control | [9] 104 % of control

O=[N+]([O-])c1ccc(NN=NCCCl)cc1
inactive: [1] 109 % of control

O=C(O)C(CS)NSc1ccccc1[N+](=O)[O-] (stereo unspecified)
inactive: [3] 111 % of control | [4] 112 % of control | [5] 102 % of control

N#C/C(=N\Nc1ccccc1Cl)C(=O)C1CC1
inactive: [10] 100 % of control | [11] 100 % of control | [12] 89 % of control

CC(Cl)CN1COc2ccc3ccc4c(c3c2C1)CN(CC(C)Cl)CO4 (stereo unspecified)
inactive: [13] 106 % of control and 107 % of control and 117 % of control | [14] 107 % of control and 112 % of control and 123 % of control | [15] 117 % of control and 124 % of control | dose: 400.0 mg/kg/injection, schedule: Q01DX005 (ip), vehicle: Klucel (hydroxypropylcellulose) (HPC) 116 % of control

COc1ccc(C)cc1N=NC1C(=O)N(C(=O)CC(=O)Nc2cccc(C)c2)N=C1C (stereo unspecified)
inactive: [10] 95 % of control | [11] 89 % of control | [12] 90 % of control

C=C1C(=O)OC2C1C(OC(=O)/C(C)=C/C)CC(O)(CCl)C1C(OC(C)=O)C=C(C)C21O (stereo unspecified)
inactive: [7] 117 % of control | [8] 109 % of control | [9] 114 % of control | [16] 108 % of control

O=C1ON=C(c2ccccc2)/C1=C\C=C\c1ccccc1
inactive: [3] 95 % of control | [4] 98 % of control | [5] 103 % of control

CC1C(=O)C(Cl)(Cl)C1(C)C (stereo unspecified)
inactive: dose: 100.0 mg/kg/injection, schedule: Q01DX001 (ip), vehicle: saline with Tween-80 106 % of control | dose: 200.0 mg/kg/injection, schedule: Q01DX001 (ip), vehicle: saline with Tween-80 110 % of control

CCCCN(CCCC)CCNC(c1ccc(OC)cc1)c1ccc(OC)cc1
inactive: [17] 98 % of control | [18] 93 % of control | [19] 96 % of control

CC(C)(C)CC(C)(C)c1ccc(OCc2ccc(C(F)(F)F)cc2)cc1
inactive: [8] 100 % of control | [9] 96 % of control | [16] 100 % of control

O=C(NN1C(=O)CSC1c1ccccc1F)c1ccncc1 (stereo unspecified)
inactive: [17] 93 % of control | [18] 108 % of control | [19] 97 % of control

CN(C)C(=C[N+](=O)[O-])N(C)C
inactive: dose: 50.0 mg/kg/injection, schedule: Q01DX009 (ip), vehicle: saline 101 % of control | dose: 100.0 mg/kg/injection, schedule: Q01DX009 (ip), vehicle: saline 103 % of control | dose: 200.0 mg/kg/injection, schedule: Q01DX009 (ip), vehicle: saline 104 % of control

CCCCC(=C=NCCCN(C)C)CC
inactive: [20] 99 % of control | [21] 92 % of control | dose: 200.0 mg/kg/injection, schedule: Q01DX005 (ip), vehicle: saline 101 % of control

CC(NC(=O)C(Cc1cnc[nH]1)NC(=O)OCc1ccccc1)C(=O)O (stereo unspecified)
inactive: [13] 96 % of control | [14] 96 % of control | [15] 96 % of control

O=c1[nH]c2ccccc2c(=O)n1CCCCCCN1CCN(c2cccc(Cl)c2)CC1
inactive: [22] 96 % of control | [23] 105 % of control | [24] 100 % of control

OC1=CC(=S)NC(c2ccccc2)C1 (stereo unspecified)
inactive: [13] 99 % of control | [14] 106 % of control | [15] 108 % of control

COc1ccc(N(CN2C(=O)CCC2=O)CS(=O)(=O)c2ccc(Cl)cc2)cc1
inactive: [10] 97 % of control | [11] 90 % of control | [12] 100 % of control

COc1ccccc1N1CCCSC1=Nc1ccccc1
inactive: dose: 12.5 mg/kg/injection, schedule: Q01DX009 (ip), vehicle: Klucel (hydroxypropylcellulose) (HPC) 105 % of control | dose: 25.0 mg/kg/injection, schedule: Q01DX009 (ip), vehicle: Klucel (hydroxypropylcellulose) (HPC) 98 % of control | [22] 90 % of control | [23] 119 % of control | [24] 90 % of control

Cc1ccc2ccc3ccc(CCl)nc3c2n1
inactive: dose: 3.12 micromoles/kg, schedule: Q01DX005 (ip), vehicle: other 95 % of control | dose: 6.25 micromoles/kg, schedule: Q01DX005 (ip), vehicle: other 99 % of control | dose: 12.5 micromoles/kg, schedule: Q01DX005 (ip), vehicle: other 102 % of control

O=c1cc(-c2ccccc2)c2cc3c(cc2[nH]1)oc1ccccc13
inactive: [3] 93 % of control | [4] 98 % of control | [5] 100 % of control

C/C(=C\N1CCN(c2ccc(Cl)cc2)C(C)C1)C(=O)c1ccccc1 (stereo unspecified)
inactive: dose: 100.0 mg/kg/injection, schedule: Q04DX003 (ip), vehicle: saline with Tween-80 94 % of control | dose: 200.0 mg/kg/injection, schedule: Q04DX003 (ip), vehicle: saline with Tween-80 88 % of control

COc1c2c(cc3ccc(=O)oc13)C=CC(C)(C)O2
inactive: dose: 9.75 mg/kg/injection, schedule: Q01DX005 (ip), vehicle: Klucel (hydroxypropylcellulose) (HPC) 100 % of control | dose: 19.5 mg/kg/injection, schedule: Q01DX005 (ip), vehicle: Klucel (hydroxypropylcellulose) (HPC) 89 % of control | dose: 39.0 mg/kg/injection, schedule: Q01DX005 (ip), vehicle: Klucel (hydroxypropylcellulose) (HPC) 100 % of control | dose: 78.0 mg/kg/injection, schedule: Q01DX005 (ip), vehicle: Klucel (hydroxypropylcellulose) (HPC) 89 % of control

CNN(C)P(=S)(Oc1ccccc1)N(C)NC
inactive: [17] 101 % of control | [18] 103 % of control | [19] 102 % of control

CCN(CC)C(=O)N(O)C1CCCCC1
inactive: [3] 105 % of control | [4] 97 % of control | [5] 103 % of control

COc1ccc(C(=O)C(Br)C(Br)C(=O)O)cc1 (stereo unspecified)
inactive: [6] 114 % of control | [7] 114 % of control | [8] 107 % of control and 121 % of control

COC1=CC(=O)c2ncc(Cl)cc2C1=O
inactive: [2] 111 % of control | [3] 100 % of control and 93 % of control

CC(Cl)CNCC(C)(C)C (stereo unspecified)
inactive: [20] 100 % of control | [21] 99 % of control

CC1=C(C#N)C(C)(CCl)C(C#N)=C(C)N1C
inactive: dose: 25.0 mg/kg/injection, schedule: Q01DX009 (ip), vehicle: other 96 % of control | dose: 50.0 mg/kg/injection, schedule: Q01DX009 (ip), vehicle: other 115 % of control | dose: 100.0 mg/kg/injection, schedule: Q01DX009 (ip), vehicle: other 103 % of control
